pIC50: −log10 of the molar value.

The assay has as its target T1, human SLC6A19 (Homo sapiens, UniProt Q695T7).
T1 construct: expressed in transfected cells
T1 sequence (Q695T7 1-634): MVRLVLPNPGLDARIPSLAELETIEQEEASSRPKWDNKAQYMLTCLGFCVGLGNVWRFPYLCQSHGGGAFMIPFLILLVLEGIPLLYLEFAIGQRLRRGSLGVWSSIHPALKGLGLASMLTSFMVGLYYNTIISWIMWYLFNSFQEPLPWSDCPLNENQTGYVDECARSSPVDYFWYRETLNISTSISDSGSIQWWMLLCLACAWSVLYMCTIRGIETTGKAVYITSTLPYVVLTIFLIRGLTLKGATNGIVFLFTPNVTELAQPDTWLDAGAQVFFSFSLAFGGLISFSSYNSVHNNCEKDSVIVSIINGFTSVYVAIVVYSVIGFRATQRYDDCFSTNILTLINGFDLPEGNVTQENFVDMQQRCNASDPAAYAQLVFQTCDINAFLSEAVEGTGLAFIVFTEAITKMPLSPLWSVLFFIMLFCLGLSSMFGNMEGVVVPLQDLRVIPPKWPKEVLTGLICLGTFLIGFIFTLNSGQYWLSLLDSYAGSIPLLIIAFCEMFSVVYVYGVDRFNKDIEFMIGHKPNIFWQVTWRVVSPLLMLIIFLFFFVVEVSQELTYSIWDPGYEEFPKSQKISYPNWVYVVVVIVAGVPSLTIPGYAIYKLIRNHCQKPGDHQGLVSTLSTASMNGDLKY
T1 sequence (Q9HBJ8 15-222 partner): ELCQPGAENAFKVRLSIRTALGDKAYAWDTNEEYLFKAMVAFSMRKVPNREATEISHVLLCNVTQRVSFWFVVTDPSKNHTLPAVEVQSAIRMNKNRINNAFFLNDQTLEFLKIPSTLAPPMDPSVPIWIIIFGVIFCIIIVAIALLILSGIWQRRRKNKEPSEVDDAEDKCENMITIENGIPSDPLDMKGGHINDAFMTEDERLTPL
In words: Example B2: 13C6,15N-isoleucine uptake, RapidFire mass spectrometry, in CHO cells with doxycycline-inducible expression of human SLC6A19 and TMEM27. It counts as cell-based. Particulars: read-out: SLC6A19_RapidFire Uptake Assay IC50. The essentials: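 Labelled isoleucine (13C6,15N; 2 mM added) was given 20 min at 37 °C, following a 20-min compound pre-treatment (10-point 2-fold series, duplicate). Cells were doxycycline-induced CHO co-expressing human SLC6A19 and TMEM27. Intracellular label was quantified by RapidFire-MS peak areas against a 13C-leucine standard.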
Take `Cc1cnc(C(=O)N2CCC[C@@H](N(C)C(=O)NCc3cc4cc(Cl)ccc4[nH]3)C2)s1` [Compound 35, (R)-3-((5-chloro-1H-indol-2-yl)methyl)-1-methyl-1-(1-(5-methylthiazole-2-carbonyl)piperidin-3-yl)urea]: the pIC50 is 6.25.

For `COc1ccc(C(=O)N2CCC[C@@H](N(C)C(=O)NCc3cc4cc(Cl)ccc4[nH]3)C2)nc1` [Compound 78, (R)-3-((5-chloro-1H-indol-2-yl)methyl)-1-(1-(5-methoxypicolinoyl)piperidin-3-yl)-1-methylurea], the pIC50 is 5.75.

`CC(=O)N1CCC[C@@H](N(C)C(=O)NCc2cc3cc(Cl)c(OCc4ccon4)cc3[nH]2)C1` [Compound 138, (R)-1-(1-acetylpiperidin-3-yl)-3-((5-chloro-6-(isoxazol-3-ylmethoxy)-1H-indol-2-yl)methyl)-1-methylurea]: the pIC50 is 6.19.

In the case of `CN(C(=O)NCc1cc2cc(Cl)ccc2[nH]1)[C@@H]1CCCN(C(=O)Cc2ccccn2)C1` [Compound 68, (R)-3-((5-chloro-1H-indol-2-yl)methyl)-1-methyl-1-(1-(2-(pyridin-2-yl)acetyl)piperidin-3-yl)urea], the pIC50 was 6.38.

As to `CCC(NC(C)=O)C(=O)N1CCC[C@@H](N(C)C(=O)NCc2cc3cc(Cl)ccc3[nH]2)C1` (stereo partly drawn) [Compound 104, N-(1-((R)-3-(3-((5-chloro-1H-indol-2-yl)methyl)-1-methylureido)piperidin-1-yl)-1-oxobutan-2-yl)acetamide], the pIC50 is 5.17.

As to `CC(=O)N1CCC[C@@H](N(C)C(=O)NCc2cc3[nH]cc(C)c3cc2F)C1` [Compound 168, (R)-1-(1-acetylpiperidin-3-yl)-3-((5-fluoro-3-methyl-1H-indol-6-yl)methyl)-1-methylurea], the pIC50 is 6.19.

In the case of `CN(C(=O)NCc1cc2cc(Cl)ccc2[nH]1)[C@@H]1CCCN(C(=O)CS(C)(=O)=O)C1` [Compound 32, (R)-3-((5-chloro-1H-indol-2-yl)methyl)-1-methyl-1-(1-(2-(methylsulfonyl)acetyl)piperidin-3-yl)urea], the pIC50 is 5.06.

On to `CN(C(=O)NCc1cc2cc(Cl)ccc2[nH]1)[C@@H]1CCCN(C(=O)c2ccccc2)C1` [Compound 52, (R)-1-(1-benzoylpiperidin-3-yl)-3-((5-chloro-1H-indol-2-yl)methyl)-1-methylurea], for which the pIC50 was 6.44.

In the case of `CN(C(=O)NCc1cc2cc(Cl)ccc2[nH]1)[C@@H]1CCCN(C(=O)C(C)(C)O)C1` [Compound 180, (R)-3-((5-chloro-1H-indol-2-yl)methyl)-1-(1-(2-hydroxy-2-methylpropanoyl)piperidin-3-yl)-1-methylurea], the pIC50 was 5.55.

For `CN(C(=O)NCc1cc2cc(Cl)ccc2[nH]1)[C@@H]1CCCN(C(=O)CC2(O)CCC2)C1` [Compound 98, (R)-3-((5-chloro-1H-indol-2-yl)methyl)-1-(1-(2-(1-hydroxycyclobutyl)acetyl)piperidin-3-yl)-1-methylurea], the negative-log IC50 (pIC50) was 5.52.

In the case of `CCOc1cc2[nH]c(CNC(=O)N(C)[C@@H]3CCCN(C(C)=O)C3)cc2cc1Cl` [Compound 155, (R)-1-(1-acetylpiperidin-3-yl)-3-((5-chloro-6-ethoxy-1H-indol-2-yl)methyl)-1-methylurea], the pIC50 was 6.27.

Take `COCC(N)C(=O)N1CCC[C@@H](N(C)C(=O)NCc2cc3cc(Cl)ccc3[nH]2)C1` (stereo partly drawn) [Compound 132, 3-((5-chloro-1H-indol-2-yl)methyl)-1-methyl-1-((3R)-1-(O-methylseryl)piperidin-3-yl)urea]: the pIC50 was below 4.51.

As to `CN(C(=O)NCc1cc2cc(Cl)ccc2[nH]1)[C@@H]1CCCN(C(=O)c2ccnn2C)C1` [Compound 51, (R)-3-((5-chloro-1H-indol-2-yl)methyl)-1-methyl-1-(1-(1-methyl-1H-pyrazole-5-carbonyl)piperidin-3-yl)urea], the pIC50 was 5.32.

Turning to `CN(C(=O)NCc1cc2cc(Cl)ccc2[nH]1)[C@@H]1CCCN(C(=O)[C@H]2CC[C@H](O)CC2)C1` [Compound 108], the pIC50 is 5.64.

Consider `CN(C(=O)NCc1cc2cc(Cl)ccc2[nH]1)[C@@H]1CCCN(C(=O)Cc2ccn[nH]2)C1` [Compound 59, (R)-1-(1-(2-(1H-pyrazol-5-yl)acetyl)piperidin-3-yl)-3-((5-chloro-1H-indol-2-yl)methyl)-1-methylurea], for which the pIC50 was 6.28.

`CN(C(=O)NCc1cc2cc(Cl)ccc2[nH]1)[C@@H]1CCCN(C(=O)C2(CO)CCC2)C1` [Compound 122, (R)-3-((5-chloro-1H-indol-2-yl)methyl)-1-(1-(1-(hydroxymethyl)cyclobutane-1-carbonyl)piperidin-3-yl)-1-methylurea]: the pIC50 is 5.07.

Turning to `CC(=O)N1CCC[C@@H](N(C)C(=O)NCc2cc3cc(F)ccc3[nH]2)C1` [Compound 161, (R)-1-(1-acetylpiperidin-3-yl)-3-((5-fluoro-1H-indol-2-yl)methyl)-1-methylurea], the pIC50 is 6.31.

Take `CN(C(=O)NCc1cc2ccccc2[nH]1)C1CCCN(c2cccnn2)C1` (stereo not shown) [Compound 145, 3-((1H-indol-2-yl)methyl)-1-methyl-1-(1-(pyridazin-3-yl)piperidin-3-yl)urea]: the negative logarithm of the IC50 (pIC50) is 6.04.

As to `CN(C(=O)NCc1cc2cc(Cl)ccc2[nH]1)[C@@H]1CCCN(C(=O)c2cnn(C)c2)C1` [Compound 55, (R)-3-((5-chloro-1H-indol-2-yl)methyl)-1-methyl-1-(1-(1-methyl-1H-pyrazole-4-carbonyl)piperidin-3-yl)urea], the pIC50 was 6.24.

On to `CN(C(=O)NCc1cc2cc(Cl)ccc2[nH]1)[C@@H]1CCCN(C(=O)N2CCCC2)C1` [Compound 181, (R)-3-((5-chloro-1H-indol-2-yl)methyl)-1-methyl-1-(1-(pyrrolidine-1-carbonyl)piperidin-3-yl)urea], for which the pIC50 was 6.10.

Consider `CNc1cc(Cl)cc2cc(CNC(=O)N(C)[C@@H]3CCCN(C(C)=O)C3)[nH]c12` [Compound 178, (R)-1-(1-acetylpiperidin-3-yl)-3-((5-chloro-7-(methylamino)-1H-indol-2-yl)methyl)-1-methylurea], for which the pIC50 is 5.80.

As to `CN(C(=O)NCc1cc2cc(Cl)ccc2[nH]1)[C@@H]1CCCN(C(=O)c2cc(CO)on2)C1` [Compound 47, (R)-3-((5-chloro-1H-indol-2-yl)methyl)-1-(1-(5-(hydroxymethyl)isoxazole-3-carbonyl)piperidin-3-yl)-1-methylurea], the pIC50 was 5.61.

As to `CN(C)C(=O)NCC(=O)N1CCC[C@@H](N(C)C(=O)NCc2cc3cc(Cl)ccc3[nH]2)C1` [Compound 101, (R)-3-((5-chloro-1H-indol-2-yl)methyl)-1-(1-((dimethylcarbamoyl)glycyl)piperidin-3-yl)-1-methylurea], the pIC50 was 5.53.

For the molecule `CN(C(=O)NCc1cc2cc(Cl)ccc2[nH]1)[C@@H]1CCCN(C(=O)c2c[nH]cn2)C1` [Compound 13, (R)-1-(1-(1H-imidazole-4-carbonyl)piperidin-3-yl)-3-((5-chloro-1H-indol-2-yl)methyl)-1-methylurea], the negative-log IC50 (pIC50) was 5.79.

For the molecule `COc1ccc2cc(CNC(=O)N(C)[C@@H]3CCCN(C(C)=O)C3)[nH]c2c1` [Compound 162, (R)-1-(1-acetylpiperidin-3-yl)-3-((6-methoxy-1H-indol-2-yl)methyl)-1-methylurea], the negative-log IC50 (pIC50) is 5.17.

What is called pIC50 is the negative decadic logarithm of the IC50, by convention in mol/L.
